According to patent US20080227797A1, “Pyridopyrimidine Derivatives as Pde4 Inhibitors for the Treatment of Inflammatory and Immune Diseases” (ASTRAZENECA AB, priority 2005, published 2008):

Biological target: recombinant Human Phosphodiesterase B2 (PDE4B2) (Homo sapiens, UniProt Q07343)
Experiment: Human Phosphodiesterase B2 Alpha Screen Assay
Type: biochemical
Conditions: cAMP substrate, Alpha Screen cAMP kit, 60 minutes at room temperature
Method: Human Phosphodiesterase B2 Alpha Screen Assay
The assay uses recombinant Human Phosphodiesterase B2 (PDE4B2) produced in house (PrAZL0133), stored at −20° C. The substrate uses cAMP, part of the Alpha Screen cAMP kit (Perkin Elmer, Cat# 6760625M), stored at 4° C. The Alpha Screen kit also includes biotinylated cAMP, acceptor and donor beads.
The assay additions were as follows: Test compounds and controls were added to white 384-well flat-bottom plates (Greiner, Cat# 781075), 0.2 μl in 100% DMSO, followed by 10 μl PDE4B2 in reaction buffer. The reaction buffer constitution was: 50 mM Tris (pH 7.5), 8.3 mM MgCl2, 1.7 mM EGTA and 0.01% (w/v) Brij®35. The enzyme and the compounds were incubated at room temperature for 15 minutes. Then 10 μl cAMP in reaction buffer was added. The assay was stopped after 60 minutes incubation at room temperature by adding 10 μl acceptor beads in detection buffer with 40 mM EDTA. The detection buffer constitution was: 5 mM Tris (pH 7.5), 0.1% (w/v) BSA and 0.1% (v/v) Tween 20. This addition followed by an addition of 10 μl donor beads in detection buffer, with biotinylated cAMP. The plates were then incubated, dark at room temperature, for 5 hours followed by measurement on a Fusion™-α analyser. IC50 values (presented in Table 1) were determined using Xlfit curve fitting using model 205.

Chain of recombinant Human Phosphodiesterase B2 (PDE4B2) (Q07343 1-564 isoform Q07343-2): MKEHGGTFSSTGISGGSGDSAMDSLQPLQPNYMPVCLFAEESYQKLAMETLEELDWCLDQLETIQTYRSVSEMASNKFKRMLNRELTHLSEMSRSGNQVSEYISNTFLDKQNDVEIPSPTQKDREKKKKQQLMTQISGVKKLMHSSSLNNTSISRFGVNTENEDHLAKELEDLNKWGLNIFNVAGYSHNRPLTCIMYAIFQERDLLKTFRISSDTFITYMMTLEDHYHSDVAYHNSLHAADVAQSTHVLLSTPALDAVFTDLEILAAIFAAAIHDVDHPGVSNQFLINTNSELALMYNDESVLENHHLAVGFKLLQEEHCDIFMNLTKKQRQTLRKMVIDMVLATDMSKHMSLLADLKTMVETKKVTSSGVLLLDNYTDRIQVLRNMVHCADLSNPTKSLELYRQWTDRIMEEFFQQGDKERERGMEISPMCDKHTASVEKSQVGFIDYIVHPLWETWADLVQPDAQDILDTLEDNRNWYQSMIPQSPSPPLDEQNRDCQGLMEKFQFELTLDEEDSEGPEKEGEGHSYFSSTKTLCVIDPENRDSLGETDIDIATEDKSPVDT

Compound | IC50 [nM]
O=C(N[C@H]1CC[C@@H](n2c(=O)c3cc(F)cnc3n(-c3ccc(F)c(F)c3)c2=O)CC1)c1cc2ccccc2[nH]1 [Example 87, N-{cis-4-[1-(3,4-difluorophenyl)-6-fluoro-2,4-dioxo-1,4-dihydropyrido[2,3-d]pyrimidin-3(2H)-yl]cyclohexyl}-1H-indole-2-carboxamide] | 0.885
COC(=O)c1cccc(-n2c(=O)n([C@H]3CC[C@@H](NC(=O)C4CCN(C)CC4)CC3)c(=O)c3cc(F)cnc32)c1 [Example 73, methyl 3-[6-fluoro-3-(cis-4-{[(1-methylpiperidin-4-yl)carbonyl]amino}cyclohexyl)-2,4-dioxo-3,4-dihydropyrido[2,3-d]pyrimidin-1(2H)-yl]benzoate] | 62.6
CS(=O)(=O)c1cccc(-n2c(=O)n([C@H]3CC[C@@H](NC(=O)[C@@H](O)c4ccccc4)CC3)c(=O)c3cc(F)cnc32)c1 [Example 43, (2S)-N-{cis-4-[6-fluoro-1-[3-(methylsulfonyl)phenyl]-2,4-dioxo-1,4-dihydropyrido[2,3-d]pyrimidin-3(2H)-yl]cyclohexyl}-2-hydroxy-2-phenylacetamide] | 36.4
O=C(c1cc(CO)ccc1O)N1CCC(n2c(=O)c3cc(F)cnc3n(-c3ccc(F)c(F)c3)c2=O)CC1 [Example 78, 1-(3,4-difluorophenyl)-6-fluoro-3-{1-[2-hydroxy-5-(hydroxymethyl)benzoyl]piperidin-4-yl}pyrido[2,3-d]pyrimidine-2,4(1H,3H)-dione] | 293
COC(=O)c1ccccc1C(=O)N[C@H]1CC[C@@H](n2c(=O)c3cc(F)cnc3n(-c3ccc(F)c(F)c3)c2=O)CC1 [Example 7, methyl 2-[({cis-4-[1-(3,4-difluorophenyl)-6-fluoro-2,4-dioxo-1,4-dihydropyrido[2,3-d]pyrimidin-3(2H)-yl]cyclohexyl}amino)carbonyl]benzoate] | 3
COC(=O)c1cccc(-n2c(=O)n([C@H]3CC[C@@H](NC(=O)C4CCCCC4)CC3)c(=O)c3cc(F)cnc32)c1 [Example 75, methyl 3-[3-{cis-4-[(cyclohexylcarbonyl)amino]cyclohexyl}-6-fluoro-2,4-dioxo-3,4-dihydropyrido[2,3-d]pyrimidin-1(2H)-yl]benzoate] | 2.6
O=C(N[C@H]1CC[C@@H](n2c(=O)c3cc(F)cnc3n(-c3ccc(F)c(F)c3)c2=O)CC1)c1ccc2[nH]cnc2c1 [Example 88, N-{cis-4-[1-(3,4-difluorophenyl)-6-fluoro-2,4-dioxo-1,4-dihydropyrido[2,3-d]pyrimidin-3(2H)-yl]cyclohexyl}-1H-benzimidazole-5-carboxamide] | 3.38
CSc1cccc(-n2c(=O)n([C@H]3CC[C@@H](NC(=O)c4cc(C)ccc4O)CC3)c(=O)c3cc(F)cnc32)c1 [Example 35, N-{cis-4-[6-fluoro-1-[3-(methylthio)phenyl]-2,4-dioxo-1,4-dihydropyrido[2,3-d]pyrimidin-3(2H)-yl]cyclohexyl}-2-hydroxy-5-methylbenzamide] | 1.4
O=C(c1n[nH]c2ccccc12)N1CC[C@H](n2c(=O)c3cc(F)cnc3n(-c3ccc(F)c(F)c3)c2=O)C1 [Example 83, 1-(3,4-difluorophenyl)-6-fluoro-3-[(3S)-1-(1H-indazol-3-ylcarbonyl)pyrrolidin-3-yl]pyrido[2,3-d]pyrimidine-2,4(1H,3H)-dione] | 9.2
CSc1cccc(-n2c(=O)n([C@H]3CC[C@@H](NC(=O)C(C)(C)O)CC3)c(=O)c3cc(F)cnc32)c1 [Example 59, N-{cis-4-[6-fluoro-1-[3-(methylthio)phenyl]-2,4-dioxo-1,4-dihydropyrido[2,3-d]pyrimidin-3(2H)-yl]cyclohexyl}-2-hydroxy-2-methylpropanamide] | 14.9
COC(=O)c1cccc(C(=O)N[C@H]2CC[C@@H](n3c(=O)c4cc(F)cnc4n(-c4ccc(F)c(F)c4)c3=O)CC2)c1 [Example 29, methyl 3-[({cis-4-[1-(3,4-difluorophenyl)-6-fluoro-2,4-dioxo-1,4-dihydropyrido[2,3-d]pyrimidin-3(2H)-yl]cyclohexyl}amino)carbonyl]benzoate] | 1.2
CSc1cccc(-n2c(=O)n([C@H]3CC[C@@H](NC(=O)[C@H](O)c4ccccc4)CC3)c(=O)c3cc(F)cnc32)c1 [Example 37, (2R)-N-{cis-4-[6-fluoro-1-[3-(methylthio)phenyl]-2,4-dioxo-1,4-dihydropyrido[2,3-d]pyrimidin-3(2H)-yl]cyclohexyl}-2-hydroxy-2-phenylacetamide] | 0.5

Other lines, results leading:

IC50 [nM] | Compound
3.6 | O=C(N[C@H]1CC[C@@H](n2c(=O)c3cc(F)cnc3n(-c3ccc(F)c(F)c3)c2=O)CC1)c1cc(F)ccc1O [Example 20, N-{cis-4-[1-(3,4-difluorophenyl)-6-fluoro-2,4-dioxo-1,4-dihydropyrido[2,3-d]pyrimidin-3(2H)-yl]cyclohexyl}-5-fluoro-2-hydroxybenzamide]
3.4 | O=C(N[C@H]1CC[C@@H](n2c(=O)c3cc(F)cnc3n(-c3ccc(F)c(F)c3)c2=O)CC1)c1ncccc1O [Example 11, N-{cis-4-[1-(3,4-difluorophenyl)-6-fluoro-2,4-dioxo-1,4-dihydropyrido[2,3-d]pyrimidin-3(2H)-yl]cyclohexyl}-3-hydroxypyridine-2-carboxamide]
6.01 | CN1CCCC(C(=O)N[C@H]2CC[C@@H](n3c(=O)c4cc(F)cnc4n(-c4ccc(F)c(F)c4)c3=O)CC2)C1 (relative stereo) [Example 99, N-{cis-4-[1-(3,4-difluorophenyl)-6-fluoro-2,4-dioxo-1,4-dihydropyrido[2,3-d]pyrimidin-3(2H)-yl]cyclohexyl}-1-methylpiperidine-3-carboxamide]
1.8 | COc1cccc(C(=O)N[C@H]2CC[C@@H](n3c(=O)c4cc(F)cnc4n(-c4ccc(F)c(F)c4)c3=O)CC2)c1O [Example 17, N-{cis-4-[1-(3,4-difluorophenyl)-6-fluoro-2,4-dioxo-1,4-dihydropyrido[2,3-d]pyrimidin-3(2H)-yl]cyclohexyl}-2-hydroxy-3-methoxybenzamide]
3.6 | CC(C)C[C@H](O)C(=O)N[C@H]1CC[C@@H](n2c(=O)c3cc(F)cnc3n(-c3ccc(F)c(F)c3)c2=O)CC1 [Example 21, (2S)-N-{cis-4-[1-(3,4-difluorophenyl)-6-fluoro-2,4-dioxo-1,4-dihydropyrido[2,3-d]pyrimidin-3(2H)-yl]cyclohexyl}-2-hydroxy-4-methylpentanamide]
2.09 | O=C(N[C@H]1CC[C@@H](n2c(=O)c3cc(F)cnc3n(-c3ccc(F)c(F)c3)c2=O)CC1)c1nc2ccccc2s1 [Example 104, N-{cis-4-[1-(3,4-difluorophenyl)-6-fluoro-2,4-dioxo-1,4-dihydropyrido[2,3-d]pyrimidin-3(2H)-yl]cyclohexyl}-1,3-benzothiazole-2-carboxamide]
0.5 | O=C(N[C@H]1CC[C@@H](n2c(=O)c3cc(F)cnc3n(-c3ccc(F)c(F)c3)c2=O)CC1)c1cn2ccccc2n1 [Example 33, N-{cis-4-[1-(3,4-difluorophenyl)-6-fluoro-2,4-dioxo-1,4-dihydropyrido[2,3-d]pyrimidin-3(2H)-yl]cyclohexyl}imidazo[1,2-a]pyridine-2-carboxamide]
2.12 | O=C(CCN1CCOCC1)N[C@H]1CC[C@@H](n2c(=O)c3cc(F)cnc3n(-c3ccc(F)c(F)c3)c2=O)CC1 [Example 100, N-{cis-4-[1-(3,4-difluorophenyl)-6-fluoro-2,4-dioxo-1,4-dihydropyrido[2,3-d]pyrimidin-3(2H)-yl]cyclohexyl}-3-morpholin-4-ylpropanamide]
18.6 | O=C(N[C@H]1CC[C@@H](n2c(=O)c3cc(F)cnc3n(-c3ccc(F)c(F)c3)c2=O)CC1)C1(O)CC1 [Example 52, N-{cis-4-[1-(3,4-difluorophenyl)-6-fluoro-2,4-dioxo-1,4-dihydropyrido[2,3-d]pyrimidin-3(2H)-yl]cyclohexyl}-1-hydroxycyclopropanecarboxamide]
0.6 | O=C(CNC(=O)c1ccccc1O)N[C@H]1CC[C@@H](n2c(=O)c3cc(F)cnc3n(-c3ccc(F)c(F)c3)c2=O)CC1 [Example 24, N-[2-({cis-4-[1-(3,4-difluorophenyl)-6-fluoro-2,4-dioxo-1,4-dihydropyrido[2,3-d]pyrimidin-3(2H)-yl]cyclohexyl}amino)-2-oxoethyl]-2-hydroxybenzamide]
1.1 | O=C(N[C@H]1CC[C@@H](n2c(=O)c3cc(F)cnc3n(-c3ccc(F)c(F)c3)c2=O)CC1)c1c(O)cccc1F [Example 30, N-{cis-4-[1-(3,4-difluorophenyl)-6-fluoro-2,4-dioxo-1,4-dihydropyrido[2,3-d]pyrimidin-3(2H)-yl]cyclohexyl}-2-fluoro-6-hydroxybenzamide]
6.11 | O=C(N[C@H]1CC[C@@H](n2c(=O)c3cc(F)cnc3n(-c3ccc(F)c(F)c3)c2=O)CC1)c1ccc2[nH]nnc2c1 [Example 90, N-{cis-4-[1-(3,4-difluorophenyl)-6-fluoro-2,4-dioxo-1,4-dihydropyrido[2,3-d]pyrimidin-3(2H)-yl]cyclohexyl}-1H-1,2,3-benzotriazole-5-carboxamide]
